pIC50: −log10 of the molar value. Activity calls are given as the source filed them. The calls are words filed in the database; no cut-off is given here.
How the values were obtained:
[1] = biological target: T1, Low molecular weight phosphotyrosine protein phosphatase (Homo sapiens, UniProt P24666); experiment: Inhibition of full length 6-His-N-terminal tagged human LMW-PTP expressed in Escherichia coli BL21 (DE3) cells assessed as pNP formation using pNPP as substrate incubated for 15 mins prior to substrate addition by plate reader analysis
T1 sequence (P24666 whole entry): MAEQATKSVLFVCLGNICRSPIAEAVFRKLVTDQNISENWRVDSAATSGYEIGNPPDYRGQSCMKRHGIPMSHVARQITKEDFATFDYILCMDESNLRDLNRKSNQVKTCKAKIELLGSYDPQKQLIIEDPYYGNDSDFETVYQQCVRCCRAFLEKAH

[2] = biological target: T2, M-phase inducer phosphatase 2 (Homo sapiens, UniProt P30305); experiment: Inhibition of 6-His-N-terminal tagged human CDC-25B isoform 3 catalytic domain expressed in Escherichia coli BL21 (DE3) cells assessed as pNP formation using pNPP as substrate incubated for 15 mins prior to substrate addition by plate reader analysis
T2 sequence (P30305 whole entry): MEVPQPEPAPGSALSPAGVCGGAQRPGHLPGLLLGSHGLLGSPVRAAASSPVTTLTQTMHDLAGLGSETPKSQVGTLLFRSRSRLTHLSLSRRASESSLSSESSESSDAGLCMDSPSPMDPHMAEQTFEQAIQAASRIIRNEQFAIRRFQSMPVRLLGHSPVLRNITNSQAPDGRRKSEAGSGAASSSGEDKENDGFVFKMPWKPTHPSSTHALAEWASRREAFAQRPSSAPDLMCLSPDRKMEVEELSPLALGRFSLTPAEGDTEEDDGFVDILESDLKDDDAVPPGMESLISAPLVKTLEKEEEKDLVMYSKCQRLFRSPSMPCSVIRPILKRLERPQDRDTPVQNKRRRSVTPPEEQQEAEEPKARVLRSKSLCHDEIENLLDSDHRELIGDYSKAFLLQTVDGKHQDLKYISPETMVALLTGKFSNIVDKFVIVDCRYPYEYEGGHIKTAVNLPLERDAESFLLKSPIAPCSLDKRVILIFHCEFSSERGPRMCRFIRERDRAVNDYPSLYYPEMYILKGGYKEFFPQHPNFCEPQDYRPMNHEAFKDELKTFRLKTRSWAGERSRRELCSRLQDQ

[3] = biological target: T3, Tyrosine-protein phosphatase non-receptor type 1 (Homo sapiens, UniProt P18031); experiment: Inhibition of 6-His-N-terminal tagged human PTP1B expressed in Escherichia coli BL21 (DE3) cells assessed as pNP formation using pNPP as substrate incubated for 15 mins prior to substrate addition by plate reader analysis
T3 sequence (P18031 whole entry): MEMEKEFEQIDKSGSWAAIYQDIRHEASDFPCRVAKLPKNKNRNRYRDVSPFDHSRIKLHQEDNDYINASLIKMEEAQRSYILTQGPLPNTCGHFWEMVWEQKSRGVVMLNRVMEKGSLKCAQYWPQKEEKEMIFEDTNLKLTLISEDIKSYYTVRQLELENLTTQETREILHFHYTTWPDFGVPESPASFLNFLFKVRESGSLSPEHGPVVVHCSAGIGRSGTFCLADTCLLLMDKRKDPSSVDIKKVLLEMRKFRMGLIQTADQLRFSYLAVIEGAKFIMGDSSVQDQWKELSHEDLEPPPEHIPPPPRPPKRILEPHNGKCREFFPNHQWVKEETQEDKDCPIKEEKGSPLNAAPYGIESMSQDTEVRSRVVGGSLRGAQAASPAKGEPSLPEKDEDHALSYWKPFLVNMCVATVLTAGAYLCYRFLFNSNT

[4] = Retardation factor of the compound using Hexanes:AcOEt (1:1) as solvent system by column chromatography; format: physicochemical
[5] = biological target: Lysozyme C (Gallus gallus) (UniProt P00698); experiment: Binding affinity to hen egg lysozyme after 3 hrs by tryptophan emission monitoring analysis
Lysozyme C (Gallus gallus), sequence (P00698 whole entry): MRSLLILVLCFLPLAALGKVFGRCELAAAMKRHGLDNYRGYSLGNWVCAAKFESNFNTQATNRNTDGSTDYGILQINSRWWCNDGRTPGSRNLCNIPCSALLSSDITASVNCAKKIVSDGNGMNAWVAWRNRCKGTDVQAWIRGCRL

[6] = biological target: T4, Low molecular weight phosphotyrosine protein phosphatase (Homo sapiens) (UniProt P24666); experiment: Binding affinity to full length 6-His-N-terminal tagged human LMW-PTP expressed in Escherichia coli BL21 (DE3) cells assessed as protein aggregate formation up to 100 uM after 1 hr by native PAGE analysis
T4 sequence (whole entry): T1 sequence (P24666 whole entry)

[7] = biological target: T5, Tyrosine-protein phosphatase non-receptor type 1 (Homo sapiens) (UniProt P18031); experiment: Binding affinity to 6-His-N-terminal tagged human PTP1B expressed in Escherichia coli BL21 (DE3) cells after 3 hrs by tryptophan emission monitoring analysis
T5 sequence (whole entry): T3 sequence (P18031 whole entry)

Albumin = Albumin (Bos taurus, UniProt P02769); experiment: Binding affinity to bovine serum albumin after 3 hrs by tryptophan emission monitoring analysis; settings: cattle
Albumin, sequence (P02769 whole entry): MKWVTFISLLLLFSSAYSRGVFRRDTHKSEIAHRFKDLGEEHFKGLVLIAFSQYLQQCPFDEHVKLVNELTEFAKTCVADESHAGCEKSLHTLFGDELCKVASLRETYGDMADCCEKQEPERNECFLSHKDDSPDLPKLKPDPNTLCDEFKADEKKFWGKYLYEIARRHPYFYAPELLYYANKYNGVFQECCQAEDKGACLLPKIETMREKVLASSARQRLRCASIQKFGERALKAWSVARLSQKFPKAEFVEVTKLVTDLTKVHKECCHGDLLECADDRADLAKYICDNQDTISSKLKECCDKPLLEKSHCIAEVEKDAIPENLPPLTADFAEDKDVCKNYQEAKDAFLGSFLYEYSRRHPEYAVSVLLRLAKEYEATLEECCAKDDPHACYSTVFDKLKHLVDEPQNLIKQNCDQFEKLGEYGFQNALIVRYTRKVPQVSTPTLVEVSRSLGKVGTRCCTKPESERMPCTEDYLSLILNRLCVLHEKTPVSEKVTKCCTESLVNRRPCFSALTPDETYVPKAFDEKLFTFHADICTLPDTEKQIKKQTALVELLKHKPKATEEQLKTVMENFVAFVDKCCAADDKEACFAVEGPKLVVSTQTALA

[8] = biological target: T5, Tyrosine-protein phosphatase non-receptor type 1 (Homo sapiens); experiment: Binding affinity to 6-His-N-terminal tagged human PTP1B expressed in Escherichia coli BL21 (DE3) cells assessed as protein aggregate formation up to 100 uM after 1 hr by native PAGE analysis
[9] = Retardation factor of the compound using Hexanes:AcOEt (7:3) as solvent system by column chromatography; format: physicochemical
[10] = biological target: T4, Low molecular weight phosphotyrosine protein phosphatase (Homo sapiens); experiment: Binding affinity to full length 6-His-N-terminal tagged human LMW-PTP expressed in Escherichia coli BL21 (DE3) cells after 3 hrs by tryptophan emission monitoring analysis
[11] = biological target: T6, M-phase inducer phosphatase 2 (Homo sapiens) (UniProt P30305); experiment: Inhibition of 6-His-N-terminal tagged human CDC-25B isoform 3 catalytic domain expressed in Escherichia coli BL21 (DE3) cells assessed as pNP formation using pNPP as substrate at 100 uM incubated for 15 mins prior to substrate addition by plate reader analysis
T6 sequence (whole entry): T2 sequence (P30305 whole entry)

[12] = biological target: T4, Low molecular weight phosphotyrosine protein phosphatase (Homo sapiens); experiment: Inhibition of full length 6-His-N-terminal tagged human LMW-PTP expressed in Escherichia coli BL21 (DE3) cells assessed as pNP formation using pNPP as substrate at 100 uM incubated for 15 mins prior to substrate addition by plate reader analysis
[13] = Retardation factor of the compound using Hexanes:AcOEt (1:2) as solvent system by column chromatography; format: physicochemical
[14] = biological target: T5, Tyrosine-protein phosphatase non-receptor type 1 (Homo sapiens); experiment: Time-dependent inhibition of 6-His-N-terminal tagged human PTP1B expressed in Escherichia coli BL21 (DE3) cells using pNPP as substrate treated with compound prior to substrate addition by plate reader analysis; settings: TDE = time-dependent effect
[15] = biological target: T4, Low molecular weight phosphotyrosine protein phosphatase (Homo sapiens); experiment: Mixed type of inhibition of full length 6-His-N-terminal tagged human LMW-PTP expressed in Escherichia coli BL21 (DE3) cells using pNPP as substrate by Lineweaver-Burk plot analysis
[16] = biological target: T5, Tyrosine-protein phosphatase non-receptor type 1 (Homo sapiens); experiment: Mixed type of inhibition of 6-His-N-terminal tagged human PTP1B expressed in Escherichia coli BL21 (DE3) cells using pNPP as substrate by Lineweaver-Burk plot analysis
[17] = biological target: T5, Tyrosine-protein phosphatase non-receptor type 1 (Homo sapiens); experiment: Inhibition of 6-His-N-terminal tagged human PTP1B expressed in Escherichia coli BL21 (DE3) cells assessed as pNP formation using pNPP as substrate incubated for 15 mins prior to substrate addition by plate reader analysis in presence of 25 mM ammonium sulfate
[18] = Retardation factor of the compound using Hexanes:AcOEt (2:1) as solvent system by column chromatography; format: physicochemical
[19] = Retardation factor of the compound using CHCl3:MeOH (9:1) as solvent system by column chromatography; format: physicochemical
[20] = biological target: T6, M-phase inducer phosphatase 2 (Homo sapiens); experiment: Inhibition of 6-His-N-terminal tagged human CDC-25B isoform 3 catalytic domain expressed in Escherichia coli BL21 (DE3) cells assessed as pNP formation using pNPP as substrate at 100 uM by plate reader analysis in presence of 50 mM MgCl2
[21] = biological target: T4, Low molecular weight phosphotyrosine protein phosphatase (Homo sapiens); experiment: Inhibition of full length 6-His-N-terminal tagged human LMW-PTP expressed in Escherichia coli BL21 (DE3) cells assessed as pNP formation using pNPP as substrate at 100 uM by plate reader analysis in presence of 50 mM MgCl2
[22] = biological target: T5, Tyrosine-protein phosphatase non-receptor type 1 (Homo sapiens); settings: BL21-DE3, 5 uM
Description: Reversible inhibition of 6-His-N-terminal tagged human PTP1B expressed in Escherichia coli BL21 (DE3) cells using pNPP as substrate at 5 uM incubated for 15 mins prior to substrate addition measured after drug wash out by plate reader analysis

Work on CCCCCCCCCCCCCCCC(=O)C1=C(O)C(COS(C)(=O)=O)OC1=O (stereo unspecified) yielded a pIC50 [1] of 5.48, a pIC50 [2] of 5.10 and a pIC50 [3] of 6.40.
CCCCCCCCCCCCCCCCCC(=O)C1=C(O)OC(C)(C)OC1=O showed a pIC50 [1] of 5.28, a pIC50 [2] of 5.19 and a pIC50 [3] of 6.22. It also gave a Rf [4] of 0.51.
With CCCCCCCCCCCCCCCC(=O)OC1=CC(=O)OC(COCc2ccccc2)C1 (stereo unspecified) the Activity [5] was “Active”, the Activity [6] was “inactive” and the Activity [7] was “Active”. For the same compound, the pIC50 [1] was less than 4.00, the Activity (Albumin) was “Active” and the pIC50 [2] was less than 4.00. For the same compound, the pIC50 [3] was 5.09, the Activity [8] was “inactive” and the Rf [9] was 0.72. The Activity [10] was “Active”.
With CC(=O)C1=C(O)OC(C)(C)OC1=O the pIC50 [3] was less than 4.00, the inhibition [11] was “inactive” and the inhibition [12] was “inactive”.
Work on CCCCCCCCCCCCCCCC(=O)C1=C(O)C(COC(=O)c2ccccc2C(=O)c2ccccc2)OC1=O (stereo unspecified) yielded a pIC50 [1] of 5.00, a pIC50 [2] of 5.20 and a pIC50 [3] of 6.30.
For CCCC(=O)C1=C(O)OC(C)(C)OC1=O, the Rf [13] was 0.47, the pIC50 [3] was less than 4.00 and the inhibition [11] was “inactive”. The inhibition [12] was “inactive”.
For CCCCCCCCCCCCCCCC(=O)C1=C(O)C(COC(=O)c2ccc(C(=O)c3ccccc3)cc2)OC1=O (stereo unspecified), the pIC50 [1] was 5.42, the pIC50 [2] was 5.23 and the pIC50 [3] was 6.52.
CCCCCCCCCCCCCCCC(=O)C1=C(O)C(COC(C)=O)OC1=O (stereo unspecified) gave a pIC50 [1] of 5.00, a pIC50 [2] of 4.97 and a pIC50 [3] of 6.40.
For CCCCCCCCCCCCCCCC(=O)C1=C(O)OC(C)(C)OC1=O, the inhibition [14] was “tde”, the inhibition [15] was “Active” and the inhibition [16] was “Active”. The pIC50 [1] was 4.66, the inhibition [17] was “inactive” and the pIC50 [2] was 4.86. For the same compound, the pIC50 [3] was 6.00 and the Rf [4] was 0.5.
Compound CCCCCCCCCCCCCCCC(=O)C1=C(O)OC(C)(CC)OC1=O (stereo unspecified) has a pIC50 [1] of 4.53, a pIC50 [2] of 5.26 and a pIC50 [3] of 6.10. The Rf [18] was 0.42.
With CCCCCCCCCCCCCCCC(=O)C1=C(O)OC(CC)(CC)OC1=O the pIC50 [1] was less than 4.00, the pIC50 [2] was 5.34 and the pIC50 [3] was 5.96. It also gave a Rf [18] of 0.59.
For C=C1OC(=O)C(C(=O)CCCCCCCCCCCCCCC)=C1O, the pIC50 [1] was 5.60, the pIC50 [2] was 5.13 and the pIC50 [3] was 6.40.
CC(C)C(=O)C1=C(O)OC(C)(C)OC1=O showed a Rf [13] of 0.5, a pIC50 [2] of less than 4.00 and a pIC50 [3] of 4.14. The inhibition [12] was “inactive”.
For CCCCCCCCCCCCCCCC(=O)C1=C(O)CC(COCc2ccccc2)OC1=O (stereo unspecified), the pIC50 [1] was less than 4.00, the pIC50 [2] was 5.14 and the pIC50 [3] was 5.25. For the same compound, the Rf [9] was 0.71.
Work on CCCCCCCCCCCCCCCC(=O)C1=C(O)OC2(CCCC2)OC1=O yielded a pIC50 [1] of 5.02, a pIC50 [2] of 5.15 and a pIC50 [3] of 6.10. For the same compound, the Rf [18] was 0.59.
In the case of CCCCCCCCCCCCCCCC(=O)C1=C(O)CC(CO)OC1=O (stereo unspecified), the inhibition [14] was “tde”, the Rf [19] was 0.5 and the inhibition [15] was “Active”. The inhibition [16] was “Active”, the pIC50 [1] was less than 4.00 and the pIC50 [2] was 4.87. The pIC50 [3] was 4.81.
For CCCCCCCCCCCCCCCC(=O)C1=C(O)C(CO)OC1=O (racemic), the Activity [5] was “Active”, the inhibition [14] was “tde” and the Activity [6] was “Active”. For the same compound, the inhibition [15] was “Active”, the inhibition [20] was “inactive” and the Activity [7] was “Active”. The inhibition [16] was “Active”, the pIC50 [1] was 5.07 and the Activity (Albumin) was “Active”. For the same compound, the inhibition [17] was “inactive”, the inhibition [21] was “inactive” and the pIC50 [2] was 4.91. The pIC50 [3] was 6.15, the Activity [8] was “Active” and the inhibition [22] was “Active”. For the same compound, the Activity [10] was “Active”.
In the case of CCCCCCCCCC(=O)C1=C(O)OC(C)(C)OC1=O, the pIC50 [1] was less than 4.00, the pIC50 [2] was less than 4.00 and the pIC50 [3] was 4.54. For the same compound, the Rf [18] was 0.49.

From ChEMBL document CHEMBL3425400, “Is RK-682 a promiscuous enzyme inhibitor? Synthesis and in vitro evaluation of protein tyrosine phosphatase inhibition of racemic RK-682 and analogues” (Eur J Med Chem, 2015)
